The results in this text go back to patent US12503452B2 (Curza Global, LLC, priority 2019, dated 2025).

The MIC is the smallest concentration in the dilution series that meets the test's criterion for growth inhibition.

Molecules are shown by their SMILES. Where a name gives a salt, the structure may show the parent alone. Read-outs that look alike come from different tables or passages of the source.

Assay [1] has as its system E. coli S30 extract (bacterial protein synthesis). The assay can be described thus: E. coli S30 extract coupled transcription-translation luciferase assay (inhibition of bacterial protein synthesis). The format is biochemical. The settings on record: class by IC50 or % inhibition @ 1 μM, read-out: S30 IC50 (μM/% inhib.). The procedure, abridged:
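Cell-free coupled transcription-translation in E. coli S30 circular-DNA extract, with pBESTluc plasmid as template and complete amino acid mix. Eight 2-fold compound dilutions were incubated with the extract 1 h at 37 °C, chilled, then luciferase luminescence was read. % inhibition was taken relative to no-inhibitor wells; no-DNA wells gave background.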

In a further assay the test system is E. faecalis (Ef). The assay can be described thus: Broth microdilution minimum inhibitory concentration (MIC). The format is cell-based. As to conditions: for MIC: Enterococcus faecalis, read-out: Ef + bicarb MIC. The procedure, abridged:
(§1)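 CLSI broth microdilution with 8 two-fold compound dilutions in CAMHB, or CAMHB plus sodium bicarbonate (6.25 or 25 mM final) or heat-inactivated human serum (0–50%). Inoculum 5×10^4 CFU/well from 0.5 McFarland cultures grown at 35±2° C; tested in triplicate.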

The next assay relates to S. aureus (Sa). Described as above. The format is cell-based. As to conditions: for MIC: Staphylococcus aureus, read-out: Sa + bicarb MIC. The procedure, abridged: as §1
A further assay concerns E. coli (Ec). Described as above. The format is cell-based. As to conditions: for MIC: Escherichia coli, read-out: E. coli + bicarb MIC. The procedure, abridged: as §1
The next assay has as its system P. aeruginosa (Pa). Described as above. As to conditions: for MIC: Pseudomonas aeruginosa, read-out: Pa MIC + bicarb. The class given is cell-based. The procedure, abridged: as §1
A further assay concerns A. baumannii (Ab). Described as above. As to conditions: for MIC: Acinetobacter baumannii, read-out: Ab + bicarb MIC. The format is cell-based. The procedure, abridged:
as §1

Assay [2] concerns the target Rabbit Reticulocyte Lysate (eukaryotic protein synthesis). The assay can be described thus: Rabbit reticulocyte lysate luciferase assay (inhibition of eukaryotic protein synthesis). The format is biochemical. As to conditions: class by IC50 or % inhibition @ 1 μM, read-out: Rabbit reticulocyte IC50 (μM/% inhib.). The gist of the method:
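Nuclease-treated rabbit reticulocyte lysate translating luciferase control RNA, with complete amino acids, was incubated at 30° C. for 90 minutes with 2-fold serial compound dilutions. Luminescence was measured after adding luciferase reagent. % inhibition was relative to water controls, with no-RNA wells as background.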

In the case of `NC1CCN(Cc2ccc(-n3ccc(NC(=O)N4C[C@H]5C[C@@H](N)C[C@H]5C4)nc3=O)cc2)CC1` [Compound 295, trifluoroacetate salt], the IC50 in assay [1] and in assay [2] was over 1 µM each time. In addition, the MIC with E. faecalis (Ef), with S. aureus (Sa), in the assay on E. coli (Ec), with P. aeruginosa (Pa) and in the assay on A. baumannii (Ab) was over 32 µg/mL each time.
In the case of `CC(N)C1CCN(Cc2ccc(-n3ccc(NC(=O)N4CCN(C(=O)C(C)(C)N)CC4)nc3=O)cc2)CC1` (centres unmarked) [Compound 299, hydrochloride salt], the IC50 in assay [1] (hydrochloride salt) is 0.5 to 1 µM; in assay [2] it was over 1 µM. Besides, the “Ef + bicarb MIC” value in the assay on E. faecalis (Ef) (E. faecalis, growth medium with sodium bicarbonate, hydrochloride salt) was “++ (An MIC value (μg/mL) that is 8 μg/mL or greater and less than 32 μg/mL)”. Also, the “Sa + bicarb MIC” value with S. aureus (Sa) (S. aureus, growth medium with sodium bicarbonate) is recorded as “+++ (An MIC value (μg/mL) that is less than 8 μg/mL)”. In addition, the “E. coli + bicarb MIC” value in the assay on E. coli (Ec) (E. coli, growth medium with sodium bicarbonate) is “+++ (An MIC value (μg/mL) that is less than 8 μg/mL)”. Moreover, the “Pa MIC + bicarb” value in the assay with P. aeruginosa (Pa) (P. aeruginosa, growth medium with sodium bicarbonate) is “+ (An MIC value (μg/mL) that is 32 μg/mL or greater)”. The “Ab + bicarb MIC” value with A. baumannii (Ab) (A. baumannii, growth medium with sodium bicarbonate) is reported as “+ (An MIC value (μg/mL) that is 32 μg/mL or greater)”.
Consider `CNC1CCC(N(Cc2ccc(-n3ccc(NC(=O)N4CCN(C(=O)C(C)(C)N)CC4)nc3=O)cc2)CC2CC2)CC1` (centres unmarked) [Compound 301, hydrochloride salt], for which the IC50 in assay [1] was 0.5 to 1 µM; in assay [2], over 1 µM. Besides, the MIC in the assay on E. faecalis (Ef) was under 8 µg/mL; in the assay on S. aureus (Sa) it was under 8 µg/mL; in the assay with E. coli (Ec), under 8 µg/mL; in the assay on P. aeruginosa (Pa) it was over 32 µg/mL; with A. baumannii (Ab), 8 to 32 µg/mL.
`NC1CCCN(CCc2ccc(-n3ccc(NC(=O)N4CCN(C(=O)C5CCCN5)CC4)nc3=O)cc2)CC1` (centres unmarked) [Compound 310, hydrochloride salt]: the IC50 in assay [1] was 0.5 to 1 µM; in assay [2], over 1 µM. Besides, the MIC with E. faecalis (Ef) is over 32 µg/mL; with S. aureus (Sa), 8 to 32 µg/mL; with E. coli (Ec), under 8 µg/mL; in the assay with P. aeruginosa (Pa) it was over 32 µg/mL; in the assay with A. baumannii (Ab), over 32 µg/mL.
Take `CCN(Cc1ccc(-n2ccc(NC(=O)N3CCN(C(=O)CNC)CC3)nc2=O)cc1)C1CCC(N)CC1` (centres unmarked) [Compound 313, hydrochloride salt]: the IC50 in assay [1] is 0.5 to 1 µM; in assay [2], over 1 µM. In addition, the MIC with E. faecalis (Ef) was over 32 µg/mL; in the assay with S. aureus (Sa), under 8 µg/mL; with E. coli (Ec), under 8 µg/mL; with P. aeruginosa (Pa) it was over 32 µg/mL; in the assay with A. baumannii (Ab), over 32 µg/mL.
Consider `CCN(Cc1ccc(-n2ccc(NC(=O)N3CCN(C(=O)C4(N)CCC4)CC3)nc2=O)cc1)C1CCC(N)CC1` (centres unmarked) [Compound 315, hydrochloride salt], for which the IC50 in assay [1] and in assay [2] was over 1 µM in each case. The MIC was over 32 µg/mL in the assay on E. faecalis (Ef); 8 to 32 µg/mL in the assay on S. aureus (Sa); 8 to 32 µg/mL in the assay on E. coli (Ec); over 32 µg/mL with P. aeruginosa (Pa); over 32 µg/mL in the assay with A. baumannii (Ab).
As to `COc1cc(-n2ccc(NC(=O)N3CCN(C(=O)C(C)(C)N)CC3)nc2=O)ccc1CN(CC1CC1)C1CCC(N)CC1` (centres unmarked) [Compound 317, hydrochloride salt], the IC50 in assay [1] is under 0.5 µM; in assay [2], over 1 µM. In addition, the MIC with E. faecalis (Ef) was 8 to 32 µg/mL; in the assay with S. aureus (Sa) it was under 8 µg/mL; with E. coli (Ec) it was under 8 µg/mL; with P. aeruginosa (Pa), over 32 µg/mL; in the assay with A. baumannii (Ab), over 32 µg/mL.
Consider `CC(C)(N)C(=O)N1CCN(C(=O)Nc2ccn(-c3ccc(CNC4C[C@@H](N)C[C@@H](N)C4)cc3)c(=O)n2)CC1` (some centres unmarked) [Compound 321, hydrochloride salt], for which the IC50 was under 0.5 µM in assay [1] and over 1 µM in assay [2]. Besides, the minimal inhibitory concentration (MIC) was over 32 µg/mL in the assay on E. faecalis (Ef); over 32 µg/mL with S. aureus (Sa); 8 to 32 µg/mL in the assay on E. coli (Ec); over 32 µg/mL in the assay on P. aeruginosa (Pa); over 32 µg/mL with A. baumannii (Ab).
